Patent publication US11464802B2, “3-substituted piperidine compounds for Cbl-b inhibition, and use thereof” (Nurix Therapeutics, Inc., priority 2019, dated 2022)
Like-named read-outs stand apart in the source and are kept apart here. One block for each molecule: values may come before it.

Experiments:
[1] = tested on: primary human total T-cells; experiment: Primary human total T-cell activation: IL-2 secretion, Biological Example 2; type: cell-based; details: 48 hours, fold change over baseline; for fold induction at 0.3 µM: inhibitor 0.3 μM; for fold induction at 1 µM: inhibitor 1 μM; for fold induction at 3 µM: inhibitor 3 μM
[2] = tested on: primary human total T-cells; experiment: Primary human total T-cell activation: CD25 surface staining, Biological Example 2; type: cell-based; details: 48 hours, fold change over baseline; for fold induction at 0.3 µM: inhibitor 0.3 μM; for fold induction at 1 µM: inhibitor 1 μM; for fold induction at 3 µM: inhibitor 3 μM
Cbl-b = Cbl-b (Homo sapiens (Human), UniProt Q13191); experiment: Cbl-b displacement assay (Cbl-b inhibition assay), TR-FRET probe displacement, Biological Example 1; type: binding
Method: Candidate compounds were evaluated for their ability to bind and inhibit Cbl-b, an E3 ubiquitin-protein ligase, as evidenced by their ability to displace a fluorophore-labeled probe (Example 46) bound to Cbl-b.
The ability of candidate compounds to displace a known inhibitor and thereby inhibit Cbl-b activity was measured by monitoring the interaction of Cbl-b with a fluorophore-labeled probe in the presence of the candidate compound. A truncated variant of Cbl-b (UniProt number Q13191; SEQ ID NO:1) containing an Avitag at its N-terminus was co-expressed with BirA biotin ligase and purified using a standard protocol (see Dou et al., Nature Structural and Molecular Biology 8: 982-987, 2013; Avidity LLC).
Fluorescently-labeled inhibitor probe was synthesized and tagged with BODIPY FL (Example 46). Cbl-b displacement assays were performed in a 384-well plate at room temperature in a 10 μL reaction volume by pre-incubating 0.5 nM Cbl-b or 0.125 nM Cbl-b (final concentration, indicated as “High” and “Low”, respectively) in an assay buffer containing 20 mM HEPES pH 7.5, 150 mM NaCl, 0.01% Triton X-100, 0.01% BSA, and 0.5 mM TCEP in the presence of a candidate compound in 1% DMSO (final concentration) for 1 hour. After incubation in the presence of the candidate compound, the plate was incubated for an additional 1 hour in the presence of an approximate EC40 binding saturation consisting of 150 nM fluorescently-labeled inhibitor probe and 2 nM Streptavidin-Terbium (Cisbio) (final concentrations). Following the 1 hour incubation, the plates were read for TR-FRET signal at 520/620 nM using an Envision plate reader (Perkin Elmer).

[3] = anti-CD3/anti-CD28 co-stimulation
[4] = anti-CD3/anti-CD28 co-stimulation, read-out: IL-2 secretion CD3/CD28 1 μM
[5] = anti-CD3 alone, read-out: IL-2 secretion CD3 1 μM
[6] = anti-CD3/anti-CD28 co-stimulation, read-out: CD25 staining CD3/CD28 1 μM
[7] = anti-CD3 alone, read-out: CD25 staining CD3 1 μM
[8] = 0.125 nM Cbl-b final concentration (Low), read-out: Cbl-b activity IC50 (Low)
[9] = Cbl-b concentration (High or Low) not given, read-out: IC50 values in the Cbl-b inhibition assay of Biological Example 1
[10] = 0.5 nM Cbl-b final concentration (High), read-out: Cbl-b activity IC50 (High)

Cbl-b, sequence (Q13191 36-427): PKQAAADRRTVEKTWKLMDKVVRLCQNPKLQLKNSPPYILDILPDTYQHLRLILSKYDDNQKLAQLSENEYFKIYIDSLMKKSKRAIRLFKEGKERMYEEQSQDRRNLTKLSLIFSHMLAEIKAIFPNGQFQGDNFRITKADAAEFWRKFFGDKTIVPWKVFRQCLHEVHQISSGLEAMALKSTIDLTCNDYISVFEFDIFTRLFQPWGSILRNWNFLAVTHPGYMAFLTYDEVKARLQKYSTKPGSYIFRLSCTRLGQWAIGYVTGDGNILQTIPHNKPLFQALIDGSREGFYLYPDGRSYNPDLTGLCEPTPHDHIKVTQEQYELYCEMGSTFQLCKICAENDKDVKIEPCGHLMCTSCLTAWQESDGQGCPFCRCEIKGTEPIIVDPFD

SMILES: C[C@H]1CCCN(Cc2cc3c(c(C(F)(F)F)c2)CN(c2cccc(C4(Cc5nncn5C)COC4)c2)C3=O)[C@H]1C (relative stereo) [Compound 19, 6-((cis-2,3-dimethylpiperidin-1-yl)methyl)-2-(3-(3-((4-methyl-4H-1,2,4-triazol-3-yl)methyl)oxetan-3-yl)phenyl)-4-(trifluoromethyl)isoindolin-1-one]
fold induction at 0.3 µM [1, 3]: < 10
fold induction at 1 µM [1, 4]: 11 to 15
fold induction at 1 µM [1, 5]: < 0.33
fold induction at 3 µM ([1]; anti-CD3 alone): 0.34 to 0.66
fold induction at 0.3 µM [2, 3]: 1.25 to 1.39
fold induction at 1 µM [2, 6]: 1.25 to 1.39
fold induction at 1 µM [2, 7]: 1.05 to 1.14
fold induction at 3 µM ([2]; anti-CD3 alone): 1.05 to 1.14
IC50 (Cbl-b; [8]): 1 to 5 nM

SMILES: Cn1cnnc1CC1(c2cccc(N3Cc4c(cc(CN5C[C@@H](C(F)(F)F)C[C@H](C(F)(F)F)C5)cc4C(F)(F)F)C3=O)c2)COC1 (relative stereo) [Compound 20, trans-6-{[3,5-bis(trifluoromethyl)piperidin-1-yl]methyl}-2-(3-{3-[(4-methyl-1,2,4-triazol-3-yl)methyl]oxetan-3-yl}phenyl)-4-(trifluoromethyl)-3H-isoindol-1-one]
IC50 (Cbl-b; [8]): 1 to 5 nM

SMILES: C[C@H]1C[C@H](CO)CN(Cc2cc3c(c(C(F)(F)F)c2)CN(c2cccc(C4(Cc5nncn5C)COC4)c2)C3=O)C1 (relative stereo) [Compound 22, trans-6-{[3-(hydroxymethyl)-5-methylpiperidin-1-yl]methyl}-2-(3-{3-[(4-methyl-1,2,4-triazol-3-yl)methyl]oxetan-3-yl}phenyl)-4-(trifluoromethyl)-3H-isoindol-1-one]
fold induction at 0.3 µM [1, 3]: > 15
fold induction at 1 µM [1, 4]: > 15
fold induction at 1 µM [1, 5]: > 0.66
fold induction at 3 µM ([1]; anti-CD3 alone): > 0.66
fold induction at 0.3 µM [2, 3]: > 1.39
fold induction at 1 µM [2, 6]: > 1.39
fold induction at 1 µM [2, 7]: < 1.04
fold induction at 3 µM ([2]; anti-CD3 alone): < 1.04
IC50 (Cbl-b; [8]): < 1 nM
IC50 (Cbl-b; [9]): < 1 nM

SMILES: Cn1cnnc1CC1(c2cccc(N3Cc4c(cc(CN5CCCC(C)(F)C5)cc4C(F)(F)F)C3=O)c2)COC1 (stereo in doubt) [Compound 5, (R)-6-((3-fluoro-3-methylpiperidin-1-yl)methyl)-2-(3-(3-((4-methyl-4H-1,2,4-triazol-3-yl)methyl)oxetan-3-yl)phenyl)-4-(trifluoromethyl) isoindolin-1-one]
fold induction at 0.3 µM [1, 3]: 11 to 15
fold induction at 1 µM [1, 4]: > 15
fold induction at 1 µM [1, 5]: < 0.33
fold induction at 3 µM ([1]; anti-CD3 alone): 0.34 to 0.66
fold induction at 0.3 µM [2, 3]: > 1.39
fold induction at 1 µM [2, 6]: > 1.39
fold induction at 1 µM [2, 7]: > 1.14
fold induction at 3 µM ([2]; anti-CD3 alone): > 1.14
IC50 (Cbl-b; [8]): 5.1 to 100 nM

SMILES: Cn1cnnc1CC1(c2cccc(N3Cc4c(cc(CN5CCCC(C)(F)C5)cc4C(F)(F)F)C3=O)c2)COC1 (stereo in doubt) [Compound 6, (S)-6-((3-fluoro-3-methylpiperidin-1-yl)methyl)-2-(3-(3-((4-methyl-4H-1,2,4-triazol-3-yl)methyl)oxetan-3-yl)phenyl)-4-(trifluoromethyl)isoindolin-1-one]
fold induction at 0.3 µM [1, 3]: < 10
fold induction at 1 µM [1, 4]: > 15
fold induction at 1 µM [1, 5]: < 0.33
fold induction at 3 µM ([1]; anti-CD3 alone): 0.34 to 0.66
fold induction at 0.3 µM [2, 3]: > 1.39
fold induction at 1 µM [2, 6]: > 1.39
fold induction at 1 µM [2, 7]: > 1.14
fold induction at 3 µM ([2]; anti-CD3 alone): > 1.14
IC50 (Cbl-b; [8]): 5.1 to 100 nM

SMILES: C[C@@H]1CCCN(Cc2cc3c(c(C(F)(F)F)c2)CN(c2cccc(C4(Cc5nncn5C)COC4)c2)C3=O)C1 [Compound 3, (R)-2-(3-(3-((4-methyl-4H-1,2,4-triazol-3-yl)methyl)oxetan-3-yl)phenyl)-6-((3-methylpiperidin-1-yl)methyl)-4-(trifluoromethyl)isoindolin-1-one]
fold induction at 0.3 µM [1, 3]: 11 to 15
fold induction at 1 µM [1, 4]: > 15
fold induction at 1 µM [1, 5]: 0.34 to 0.66
fold induction at 3 µM ([1]; anti-CD3 alone): 0.34 to 0.66
fold induction at 0.3 µM [2, 3]: 1.25 to 1.39
fold induction at 1 µM [2, 6]: 1.25 to 1.39
fold induction at 1 µM [2, 7]: 1.05 to 1.14
fold induction at 3 µM ([2]; anti-CD3 alone): 1.05 to 1.14
IC50 (Cbl-b; [10]): 1 to 5 nM
IC50 (Cbl-b; [9]): 1 to 5 nM

SMILES: Cn1cnnc1CC1(c2cccc(N3Cc4c(cc(CN5CCCC(CC#N)C5)cc4C(F)(F)F)C3=O)c2)COC1 (centres unmarked) [Compound 4, 2-(1-((2-(3-(3-((4-methyl-4H-1,2,4-triazol-3-yl)methyl)oxetan-3-yl)phenyl)-3-oxo-7-(trifluoromethyl)isoindolin-5-yl)methyl)piperidin-3-yl)acetonitrile]
fold induction at 0.3 µM [1, 3]: > 15
fold induction at 1 µM [1, 4]: > 15
fold induction at 1 µM [1, 5]: 0.34 to 0.66
fold induction at 3 µM ([1]; anti-CD3 alone): 0.34 to 0.66
fold induction at 0.3 µM [2, 3]: > 1.39
fold induction at 1 µM [2, 6]: > 1.39
fold induction at 1 µM [2, 7]: > 1.14
fold induction at 3 µM ([2]; anti-CD3 alone): > 1.14
IC50 (Cbl-b; [8]): 1 to 5 nM
IC50 (Cbl-b; [9]): 1 to 5 nM

SMILES: Cn1cnnc1CC1(c2cccc(N3Cc4c(cc(CN5CCCC6(CC6)C5)cc4C(F)(F)F)C3=O)c2)COC1 [Compound 7, 6-((5-azaspiro[2.5]octan-5-yl)methyl)-2-(3-(3-((4-methyl-4H-1,2,4-triazol-3-yl)methyl)oxetan-3-yl)phenyl)-4-(trifluoromethyl)isoindolin-1-one]
fold induction at 0.3 µM [1, 3]: 11 to 15
fold induction at 1 µM [1, 4]: 11 to 15
fold induction at 1 µM [1, 5]: < 0.33
fold induction at 3 µM ([1]; anti-CD3 alone): 0.34 to 0.66
fold induction at 0.3 µM [2, 3]: > 1.39
fold induction at 1 µM [2, 6]: > 1.39
fold induction at 1 µM [2, 7]: > 1.14
fold induction at 3 µM ([2]; anti-CD3 alone): > 1.14
IC50 (Cbl-b; [10]): 5.1 to 100 nM

Further lines, with some results ahead:

IC50 (Cbl-b; [8]): < 1 nM
IC50 (Cbl-b; [9]): < 1 nM
SMILES: C[C@H]1C[C@@H](CO)CN(Cc2cc3c(c(C(F)(F)F)c2)CN(c2cccc(C4(Cc5nncn5C)COC4)c2)C3=O)C1 (relative stereo) [Compound 23, cis-6-{[3-(hydroxymethyl)-5-methylpiperidin-1-yl]methyl}-2-(3-{3-[(4-methyl-1,2,4-triazol-3-yl)methyl]oxetan-3-yl}phenyl)-4-(trifluoromethyl)-3H-isoindol-1-one]
fold induction at 0.3 µM [1, 3]: > 15
fold induction at 1 µM [1, 4]: > 15
fold induction at 1 µM [1, 5]: > 0.66
fold induction at 3 µM ([1]; anti-CD3 alone): > 0.66
fold induction at 0.3 µM [2, 3]: > 1.39
fold induction at 1 µM [2, 6]: > 1.39
fold induction at 1 µM [2, 7]: 1.05 to 1.14
fold induction at 3 µM ([2]; anti-CD3 alone): 1.05 to 1.14

IC50 (Cbl-b; [10]): < 1 nM
IC50 (Cbl-b; [9]): < 1 nM
SMILES: CC1CN(Cc2cc3c(c(C(F)(F)F)c2)CN(c2cccc(C4(Cc5nncn5C)CC4)c2)C3=O)CCC1(F)F (centres unmarked) [Compound 24, 6-((4,4-difluoro-3-methylpiperidin-1-yl)methyl)-2-(3-(1-((4-methyl-4H-1,2,4-triazol-3-yl)methyl)cyclopropyl)phenyl)-4-(trifluoromethyl)isoindolin-1-one]

IC50 (Cbl-b; [10]): 1 to 5 nM
IC50 (Cbl-b; [9]): 1 to 5 nM
SMILES: CC1CN(Cc2cc3c(c(C(F)(F)F)c2)CN(c2cccc(C4([C@H](F)c5nncn5C)CC4)c2)C3=O)CCC1(F)F (stereo partly drawn) [Compound 25, 6-((4,4-difluoro-3-methylpiperidin-1-yl)methyl)-2-(3-(1-((S)-fluoro(4-methyl-4H-1,2,4-triazol-3-yl)methyl)cyclopropyl)phenyl)-4-(trifluoromethyl)isoindolin-1-one]

IC50 (Cbl-b; [10]): 1 to 5 nM
IC50 (Cbl-b; [9]): 1 to 5 nM
SMILES: CC1CN(Cc2cc3c(c(C(F)(F)F)c2)CN(c2cccc(C4([C@@H](F)c5nncn5C)CC4)c2)C3=O)CCC1(F)F (stereo partly drawn) [Compound 26, 6-((4,4-difluoro-3-methylpiperidin-1-yl)methyl)-2-(3-(1-((R)-fluoro(4-methyl-4H-1,2,4-triazol-3-yl)methyl)cyclopropyl)phenyl)-4-(trifluoromethyl)isoindolin-1-one]
